One compound from PMC2120756 (The Journal of Cell Biology, 1996) can be followed below.

This test has as its target NHE-1 (Na+/H+ exchanger isoform 1) (Homo sapiens, UniProt P19634). Nature of the test: BCECF pHi recovery from NH4Cl acid load. In kind it is cell-based.

NHE-1 (Na+/H+ exchanger isoform 1), sequence (P19634 whole entry, canonical isoform): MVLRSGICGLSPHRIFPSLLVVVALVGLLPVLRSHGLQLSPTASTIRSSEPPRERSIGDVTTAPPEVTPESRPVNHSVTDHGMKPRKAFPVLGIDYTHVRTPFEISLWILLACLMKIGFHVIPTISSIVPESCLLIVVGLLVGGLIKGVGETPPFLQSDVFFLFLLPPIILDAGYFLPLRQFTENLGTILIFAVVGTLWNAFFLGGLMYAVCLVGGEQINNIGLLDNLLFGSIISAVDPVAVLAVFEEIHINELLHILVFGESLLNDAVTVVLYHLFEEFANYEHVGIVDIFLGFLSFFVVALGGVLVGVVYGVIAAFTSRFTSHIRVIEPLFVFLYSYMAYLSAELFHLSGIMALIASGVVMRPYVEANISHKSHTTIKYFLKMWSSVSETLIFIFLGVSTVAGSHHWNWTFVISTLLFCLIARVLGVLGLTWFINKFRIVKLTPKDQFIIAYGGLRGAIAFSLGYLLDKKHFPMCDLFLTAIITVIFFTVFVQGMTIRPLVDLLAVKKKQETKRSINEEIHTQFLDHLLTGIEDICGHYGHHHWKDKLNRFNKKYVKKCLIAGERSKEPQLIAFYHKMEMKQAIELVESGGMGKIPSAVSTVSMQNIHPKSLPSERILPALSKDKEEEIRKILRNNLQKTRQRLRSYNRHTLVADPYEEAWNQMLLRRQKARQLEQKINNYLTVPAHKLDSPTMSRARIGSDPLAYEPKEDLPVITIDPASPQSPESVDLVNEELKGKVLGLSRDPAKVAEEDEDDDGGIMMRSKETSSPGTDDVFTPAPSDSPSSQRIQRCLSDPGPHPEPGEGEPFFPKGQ

As for `CS(=O)(=O)c1cc(C(=O)N=C(N)N)ccc1N1CCCCC1` [HOE694], the IC50 was roughly 10 nM.

By IC50 is commonly meant the midpoint of a concentration-inhibition curve. Low readings indicate inhibition by little substance, high ones a need for much substance.
